According to patent publication US4714705A, “4-nitrogen substituted isoquinolinol compounds having cardiotonic, phosphodiesterase fraction III inhibiting properties and/or renal vasodilating properties” (Ortho Pharmaceutical Corporation, priority 1986, dated 1987):
Like-named read-outs stand apart in the source and are kept apart here.

Experiments:
adult mongrel dogs [1] = experiment: Renal vasodilating activity in anesthetized dogs; assay type: in vivo, dog (adult mongrel); settings: Canis lupus familiaris; for change in vivo at 0.2 mg/kg: 0.2 mg/kg intravenous
Experimental: Goldberg et al, J. Pharmacol. Exp. Ther., 163, 188 (1968), performed an investigation of the structural requirements for dopamine-like renal vasodilation of phenethylamines and apmorphine. The following procedure is a variation of the assay described in that report.
Adult mongrel dogs were anesthetized and surgically prepared for electromagnetic measurement of renal artery blood flow. A carotid artery was cannulated for measuring arterial blood pressure, and drugs were administered intravenously or intraarterially (via the renal artery). Heart rate was monitored with a cardiotachometer. Renal vascular resistance was calculated as the ratio of mean arterial blood pressure/renal artery blood flow. Dopamine was infused intravenously at […] for ten minutes (at an infusion rate of about 1 ml/min) to determine responsiveness of each dog to renal dopamine receptor stimulation. Cumulative dose-response data were obtained by infusing a compound of this invention at progressively increasing (usually three-fold) infusion rates, esch dose being infused for five minutes. The maximum percent increase from pre-drug control in renal artery blood flow (or a decrease in renal vascular resistance) was determined for each infusion dose.
RBF values are percent increase in renal blood flow. RVR values are percent increase in renal vascular resistance. MABP and HR are increases in mean arterial blood pressure and heart rate, respectively, relative to controls.

adult mongrel dogs [2] = experiment: Acute in vivo cardiotonic activity in anesthetized dogs; set-up: species or system dog (adult mongrel); settings: Canis lupus familiaris, 0.875 mg/kg intravenous, relative to controls
Experimental: The acute in vivo cardiotonic activity of compounds prepared according to the present invention was determined according to a modification of the procedure described by Alousi et al., Circ. Res., 45, 666 (1979).
In particular, adult mongrel dogs were anesthetized with sodium pentobarbital and were artificially respired. Arterial pressure was monitored via a femoral artery, and the pulse pressure was used to trigger a cardiotachometer for heart rate. Left ventricular pressure was determined with a Millar catheter, and dP/dt (the change in ventricular pressure with time) was derived. Cardiac output was determined by measuring ascending aortic blood flow with an electromagnetic flow probe, and myocardial contractile force was measured with a Walton Brodie strain gauge sutured to the right ventricle. Lead II EKG was also recorded.
A standard dose (10 μ/kg/min) of dopamine was administered to assess myocardial responsiveness.
Compounds of the invention were administered by intravenous infusion or bolus oral administration, and the effects on cardiovascular parameters were determined.
Dose related effects on the test compound on blood pressure (BP), heart rate (HR), maximum change in left ventricular pressure with time (dP/dt max), % change in cardiac force (CF) and the increase in mean arterial blood pressure relative to controls (MABP) were compared to pretreatment control values, expressed as a % change and rated for activity. Statistical evaluations were made using the appropriate parametric test against controls.

[3] = 1.2 mg/kg intravenous, relative to controls, read-out: HR, percent change in heart rate
[4] = 1.2 mg/kg intravenous, relative to controls, read-out: RBF, renal blood flow
[5] = 1.2 mg/kg intravenous, relative to controls, read-out: RVR, renal vascular resistance
[6] = 6.2 mg/kg intravenous, relative to controls, read-out: HR, percent change in heart rate
[7] = 6.2 mg/kg intravenous, relative to controls, read-out: RBF, renal blood flow
[8] = 6.2 mg/kg intravenous, relative to controls, read-out: RVR, renal vascular resistance
[9] = 1.2 mg/kg intravenous, relative to controls, read-out: MABP, mean arterial blood pressure
[10] = 6.2 mg/kg intravenous, relative to controls, read-out: MABP, mean arterial blood pressure
[11] = iv, read-out: HR, percent change in heart rate

Row | Structure (SMILES) | change in vivo at 1.2 mg/kg (adult mongrel dogs [1]; [3]) [%] | change in vivo at 1.2 mg/kg (adult mongrel dogs [1]; [4]) [%] | change in vivo at 1.2 mg/kg (adult mongrel dogs [1]; [5]) [%] | change in vivo at 6.2 mg/kg (adult mongrel dogs [1]; [6]) [%] | change in vivo at 6.2 mg/kg (adult mongrel dogs [1]; [7]) [%] | change in vivo at 6.2 mg/kg (adult mongrel dogs [1]; [8]) [%] | change in vivo at 1.2 mg/kg (adult mongrel dogs [1]; [9]) [%] | change in vivo at 6.2 mg/kg (adult mongrel dogs [1]; [10]) [%] | further results
1 | CCCCCCCCNC(=O)Nc1c(O)nc(C)c2cc(OC)c(OC)cc12 [BBF] | -14 | 19 | -24 | – | – | – | – | – | –
2 | COc1cc2c(C)nc(O)c(NC(=O)Nc3cccc(Cl)c3)c2cc1OC [BAF] | – | – | – | 4 | 30 | -20 | – | – | –
3 | C=CCNC(=O)Nc1c(O)nc(C)c2cc(OC)c(OC)cc12 [BAO, 4-(N'-allylureido)-3-hydroxy-6,7-dimethoxy-1-methylisoquinoline] | -3 | 96 | -44 | – | – | – | 8 | – | –
4 | COc1ccc(NC(=O)Nc2c(O)nc(C)c3cc(OC)c(OC)cc23)c(OC)c1 [BAP] | -1 | 17 | -26 | – | – | – | -14 | – | –
5 | COc1cc2c(C)nc(O)c(N)c2cc1OC [Compound BBQ, 4-Amino-3-hydroxy-6,7-dimethoxy-1-methylisoquinoline] | 4 | 22 | -12 | – | – | – | 6 | – | change in vivo at 0.875 mg/kg (adult mongrel dogs [2]; read-out: CF, percent change in cardiac force): 99%; change in vivo at 0.875 mg/kg (adult mongrel dogs [2]; read-out: HR, percent change in heart rate): 7%; change in vivo at 0.875 mg/kg (adult mongrel dogs [2]; read-out: MABP, mean arterial blood pressure): -5%; change in vivo at 0.875 mg/kg (adult mongrel dogs [2]; read-out: dP/dt, maximum change left ventricular pressure with time): 106%
6 | COc1cc2c(C)nc(O)c(NC(=O)Nc3cccc(C(F)(F)F)c3)c2cc1OC [BAG] | – | – | – | -10 | 23 | -16 | – | 2 | –
7 | COc1cc2c(C)nc(O)c(NC(=O)Nc3ccc(C(F)(F)F)cc3)c2cc1OC [BAD] | – | – | – | – | 49 | -29 | – | 4 | change in vivo at 6.2 mg/kg (adult mongrel dogs [1]; [11]): 10%
8 | COc1cc2c(C)nc(O)c(NC(N)=O)c2cc1OC [Compound BM, 6,7-Dimethoxy-3-hydroxy-1-methyl-4-ureidoisoquinoline] | – | – | – | -10 | 59 | -23 | – | 18 | –
9 | CNC(=O)Nc1c(O)nc(C)c2cc(OC)c(OC)cc12 [BBY] | -4 | 21 | -12 | – | – | – | 6 | – | –
10 | COc1cc2c(C)nc(O)c(NC(=O)Nc3ccc(C#N)cc3)c2cc1OC [BBX] | -11 | 12 | -20 | – | – | – | -11 | – | –
11 | COc1cc2c(C)nc(O)c(NC(=O)Nc3ccc([N+](=O)[O-])cc3)c2cc1OC [BAR] | – | 9 | -8 | – | – | – | – | – | –
12 | CCCCOC(=O)Nc1c(O)nc(C)c2cc(OC)c(OC)cc12 [Compound BBP, 4-[N-(n-Butoxycarbonyl)amino]-3-hydroxy-6,7-dimethoxy-1-methylisoquinoline] | – | – | – | – | 77 | -42 | – | 1 | –
13 | COc1ccc(NC(=O)Nc2c(O)nc(C)c3cc(OC)c(OC)cc23)cc1 [BP, 4-(N'-para-methoxyphenylureido)-3-hydroxy-6,7-dimethoxy-1-methylisoquinoline] | – | – | – | 2 | 68 | -32 | – | 12 | –
14 | COc1cccc(NC(=O)Nc2c(O)nc(C)c3cc(OC)c(OC)cc23)c1 [BAE] | – | – | – | -2 | 58 | -36 | – | – | –
15 | CCOc1cc2c(C)nc(O)c(NC(N)=O)c2cc1OC [BS] | – | – | – | 4 | 33 | -24 | – | – | –
16 | COc1ccc(NC(=O)Nc2c(O)ncc3cc(OC)c(OC)cc23)cc1 [BBG] | – | 15 | -11 | – | – | – | 1 | – | change in vivo at 1.2 mg/kg (adult mongrel dogs [1]; [11]): 12%

Row | Structure (SMILES) | change in vivo at 1.2 mg/kg (adult mongrel dogs [1]; [3]) [%] | change in vivo at 1.2 mg/kg (adult mongrel dogs [1]; [4]) [%] | change in vivo at 1.2 mg/kg (adult mongrel dogs [1]; [5]) [%] | change in vivo at 6.2 mg/kg (adult mongrel dogs [1]; [6]) [%] | change in vivo at 6.2 mg/kg (adult mongrel dogs [1]; [7]) [%] | change in vivo at 6.2 mg/kg (adult mongrel dogs [1]; [8]) [%] | change in vivo at 1.2 mg/kg (adult mongrel dogs [1]; [9]) [%] | change in vivo at 6.2 mg/kg (adult mongrel dogs [1]; [10]) [%] | further results
17 | COc1cc2c(C)nc(O)c(NC(=O)NC(C)(C)C)c2cc1OC [BAU] | – | – | – | 4 | 12 | -13 | – | -3 | –
18 | COc1cc2c(C)nc(O)c(NC(=O)NCCc3ccccc3)c2cc1OC [BBM] | – | – | – | – | – | – | – | – | change in vivo at 0.2 mg/kg (adult mongrel dogs [1]; relative to controls, read-out: HR, percent change in heart rate): -1%; change in vivo at 0.2 mg/kg (adult mongrel dogs [1]; relative to controls, read-out: RBF, renal blood flow): 12%; change in vivo at 0.2 mg/kg (adult mongrel dogs [1]; relative to controls, read-out: RVR, renal vascular resistance): -10%
19 | CCCCNC(=O)Nc1c(O)nc(C)c2cc(OC)c(OC)cc12 [Compound BR, 4-(N'-n-Butylureido)-3-hydroxy-6,7-dimethoxy-1-methylisoquinoline Hemihydrate] | – | – | – | -9 | 128 | -56 | – | -1 | –
20 | COc1cc2c(C)nc(O)c(NC(=O)Nc3ccc([S+](C)[O-])cc3)c2cc1OC (centres unmarked) [Compound BCB, Hydrate] | -1 | 12 | -6 | – | – | – | 5 | – | –
21 | COc1cc2c(C)nc(O)c(NC(=O)Nc3ccc(C(=O)O)cc3)c2cc1OC [Compound BCA, 4-[N-(4-Carboxyphenyl)ureido]-3-hydroxy-6,7-dimethoxy-1-methylisoquinoline.5/2 Hydrate] | -12 | 40 | -28 | – | – | – | -1 | – | –
22 | COc1cc2c(C)nc(O)c(NC(=O)NC3CCCCC3)c2cc1OC [BBE] | 2 | 24 | -16 | – | – | – | 3 | – | –
23 | CCOc1cc2c(C)nc(O)c(NC(=O)Nc3ccc(C(F)(F)F)cc3)c2cc1OC [BV] | – | – | – | 26 | 25 | -24 | – | -6 | –
24 | CCOc1cc2c(NC(=O)Nc3ccc(SC)cc3)c(O)nc(C)c2cc1OC [BBA] | – | – | – | 2 | 53 | -17 | – | 23 | –
25 | CCOc1cc2c(C)nc(O)c(NC(=O)NCc3ccccc3)c2cc1OC [BAJ] | – | – | – | -6 | 54 | -32 | – | -11 | –
26 | COc1cc2c(C)nc(O)c(NC(=O)Nc3ccc(N)cc3)c2cc1OC [BBZ] | 8 | 22 | -12 | – | – | – | 5 | – | –
27 | CCNC(=O)Nc1c(O)nc(C)c2cc(OC)c(OC)cc12 [BCD] | – | 28 | -22 | – | – | – | – | – | –
28 | COc1ccc(NC(=O)Nc2c(O)nc(C)c3cc(OC)ccc23)cc1 [BBS] | 5 | 17 | -4 | – | – | – | 2 | – | –
29 | CCOc1cc2c(NC(=O)Nc3ccc(OC)cc3)c(O)nc(C)c2cc1OC [BAV] | – | – | – | 9 | 35 | -29 | – | -5 | –
30 | COC(=O)Nc1c(O)nc(C)c2cc(OC)c(OC)cc12 [BBR] | – | – | – | 27 | 30 | -29 | – | -7 | –
31 | COc1cc2c(C)nc(O)c(NC(=O)NCCCl)c2cc1OC [BAY] | – | – | – | – | – | – | – | – | change in vivo at 6.2 mg/kg (adult mongrel dogs [1]; [11]): 27%; change in vivo at 6.2 mg/kg (adult mongrel dogs [1]; iv, read-out: MABP, mean arterial blood pressure): 19%; change in vivo at 6.2 mg/kg (adult mongrel dogs [1]; iv, read-out: RBF, renal blood flow): 85%; change in vivo at 6.2 mg/kg (adult mongrel dogs [1]; iv, read-out: RVR, renal vascular resistance): -35%
32 | COc1ccc(NC(=O)Nc2c(O)nc(C)c3cc(OC)c(OC)cc23)cc1OC [BBL] | -1 | 13 | -8 | – | – | – | 5 | – | –
